# Assay results from US20210283261A1, “Compositions and Methods for Treating ALK-Mediated Cancer” (ICAHN SCHOOL OF MEDICINE AT MOUNT SINAI, priority 2017, published 2021).
# How the values were obtained:
# [1] = target: T1, EML4-ALK v3 fusion protein (Homo sapiens, UniProt Q9UM73); test: Western blot of EML4-ALK v3 fusion protein levels in NCI-H2228 cells; assay type: cell-based; conditions: for effect on EML4-ALK fusion protein levels, time dependence: NCI-H2228 cells, 0, 2, 4, 8, 16 and 24 h; for effect on EML4-ALK fusion protein levels, concentration dependence: NCI-H2228 cells, 1, 3, 10, 30 or 100 nM, 16 h
# T1 construct: endogenous in cells; host or cells: NCI-H2228
# T1 sequence (Q9UM73 1058-1620 limits assumed): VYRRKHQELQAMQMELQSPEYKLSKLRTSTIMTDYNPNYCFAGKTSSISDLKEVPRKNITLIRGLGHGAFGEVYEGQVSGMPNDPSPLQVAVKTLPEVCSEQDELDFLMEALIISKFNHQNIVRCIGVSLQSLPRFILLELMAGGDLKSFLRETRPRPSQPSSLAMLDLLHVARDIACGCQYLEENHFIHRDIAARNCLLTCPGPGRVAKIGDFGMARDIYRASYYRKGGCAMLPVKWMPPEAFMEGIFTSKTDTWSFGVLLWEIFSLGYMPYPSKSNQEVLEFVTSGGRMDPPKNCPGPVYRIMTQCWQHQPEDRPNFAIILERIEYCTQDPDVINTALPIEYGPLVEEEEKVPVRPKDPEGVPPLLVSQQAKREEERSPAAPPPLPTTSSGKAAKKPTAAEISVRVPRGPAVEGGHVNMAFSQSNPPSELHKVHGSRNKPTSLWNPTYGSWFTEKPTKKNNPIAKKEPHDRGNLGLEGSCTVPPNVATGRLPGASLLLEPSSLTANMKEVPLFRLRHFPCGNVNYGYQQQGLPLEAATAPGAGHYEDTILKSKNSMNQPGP
# Experimental: Cells were cultured in a 37° C. incubator with 5% CO2.
# Cells were washed with cold PBS once and lysed in 1× Laemmli loading buffer directly. […] Membrane was blocked in 5% milk in Tris-buffered saline and Tween 20 (TBST) for 1 h at room temperature, followed by incubation with a primary antibody overnight at 4° C., and a horseradish peroxidase (HRP)-conjugated secondary antibody for 1 h at room temperature. The membrane was imaged by a ChemiDoc MP imaging system (BIO-RAD). Antibodies against GAPDH (abeam), Phospho-ALK (Tyr1507), ALK (Cell Signaling Technology), Tubulin (Santa Cruz) were purchased commercially.
# Cells were 70% confluent and treated with DMSO or indicated serial dilutions of compounds for 16 h. The EML4-ALK fusion protein levels were determined by Western blot and normalized against GPADH (right panel).
# ALK = test: Characterization of ALK degraders in ALCL and NSCLC cells (summary); assay type: cell-based; conditions: summary statement
# Description: Specific exemplary ALK degraders/disruptors were characterized in various different anaplastic large cell lymphoma (ALCL) cells and non-small cell lung cancer (NSCLC) cells (Examples 4-19, FIGS. 1-18). […] This efficacy in suppressing ALK expression and ALK activity correlated with efficacy in inhibiting cancer cell proliferation.
# NPM-ALK fusion protein = target: T2, NPM-ALK fusion protein (Homo sapiens, UniProt Q9UM73); test: Western blot of NPM-ALK fusion protein levels in SU-DHL-1 cells; assay type: cell-based; conditions: for effect on NPM-ALK fusion protein levels, time dependence: SU-DHL-1 cells, 0, 2, 4, 8, 16 and 24 h; for Dmax at 0.03 µM / reversibility of induced ALK fusion protein degradation after washout / rescue of induced NPM-ALK degradation by pomalidomide, MLN4924 and MG-132: SU-DHL-1 cells; for Dmax at 0.03 µM: 30 nM, Western blot, read-out: ALK fusion protein degradation, SU-DHL-1 (30 nM); for reversibility of induced ALK fusion protein degradation after washout: 100 nM for 2 h, PBS wash, fresh medium; for effect on NPM-ALK fusion protein levels, concentration dependence: SU-DHL-1 cells, 1, 3, 10, 30 or 100 nM, 16 h; for rescue of induced NPM-ALK degradation by pomalidomide, MLN4924 and MG-132: 2 h pre-treatment, then 100 nM compound for 6 h
# T2 construct: endogenous in cells; host or cells: SU-DHL-1; the other entry of the earlier key: NPM1 (P06748, Nucleophosmin)
# T2 sequence (Q9UM73 with tags, fused parts or gaps): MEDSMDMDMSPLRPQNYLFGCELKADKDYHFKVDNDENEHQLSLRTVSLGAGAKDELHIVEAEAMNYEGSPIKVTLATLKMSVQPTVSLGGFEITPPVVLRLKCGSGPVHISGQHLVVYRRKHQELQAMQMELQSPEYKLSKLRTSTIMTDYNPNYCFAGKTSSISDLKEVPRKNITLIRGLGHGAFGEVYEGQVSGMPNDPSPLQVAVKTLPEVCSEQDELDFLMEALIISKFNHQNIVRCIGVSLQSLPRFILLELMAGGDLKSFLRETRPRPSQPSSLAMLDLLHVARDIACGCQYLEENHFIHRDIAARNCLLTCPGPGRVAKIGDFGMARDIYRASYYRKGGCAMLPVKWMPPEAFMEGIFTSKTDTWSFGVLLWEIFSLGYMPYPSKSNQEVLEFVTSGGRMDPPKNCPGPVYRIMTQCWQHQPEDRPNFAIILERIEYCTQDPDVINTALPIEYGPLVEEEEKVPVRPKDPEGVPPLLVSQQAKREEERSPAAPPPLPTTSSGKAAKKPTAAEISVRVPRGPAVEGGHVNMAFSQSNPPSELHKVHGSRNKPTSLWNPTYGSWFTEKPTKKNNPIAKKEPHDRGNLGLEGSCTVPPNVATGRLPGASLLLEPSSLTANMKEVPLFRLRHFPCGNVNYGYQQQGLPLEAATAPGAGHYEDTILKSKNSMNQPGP
# How it was run: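 SU-DHL-1 cells treated with DMSO or compound serial dilutions for 16 h, or at 30 nM or 100 nM for varying times. NPM-ALK and phospho-ALK (Tyr1507) levels measured by Western blot and normalized to GAPDH.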
# SU-DHL-1 cells = test: Cell viability assay in SU-DHL-1 cells; assay type: cell-based; conditions: CellTiter-Glo; for cell viability inhibition compared with negative controls: 3 days; for GI50: Homo sapiens, 60 h, 2.5 days, read-out: GI50 (drug concentration that results in 50% growth inhibition)
# Experimental: (§1) SU-DHL-1 cells were seeded in 96-well plates at a density of 1×10^4 cells per well, in triplicate. Treated cells with DMSO or indicated serial dilutions of compounds for 2.5 days. Cell growth/survival was measured by using the CellTiter-Glo luminescent cell viability assay following the manufacturer's instructions (Promega) or CCK8 cell viability assay (Sigma). Data was analyzed by using the GraphPad Prism software, Error bars represent ±SD for triplicate experiments.
# as §1, with “assay.” for “assay following the manufacturer's instructions (Promega) or CCK8 cell viability assay (Sigma).”, “experiments (left panel).” for “experiments.”
# SU-DHL-1 cells were seeded in 96-well plates at a density of 5000 cells per well, in triplicate. The cells were treated with DMSO or indicated serial dilutions of compounds for 3 days. Cell growth was measured using the CellTiter-Glo luminescent cell viability assay. Data were analyzed using the GraphPad Prism.
# SU-DHL-1 and NCI-3122 cells were treated with DMSO or indicated serial dilutions of compounds for 3 days. Data were analyzed using the GraphPad Prism.
# Phospho-ALK (Tyr1507) = target: T3, Phospho-ALK (Tyr1507) (Homo sapiens, UniProt Q9UM73); test: Western blot of ALK phosphorylation at Tyr1507 (ALK activity) in SU-DHL-1 cells; assay type: cell-based; conditions: 3 nM, 16 h
# T3 construct: endogenous in cells; host or cells: SU-DHL-1; the other entry of the earlier key: NPM1 (P06748, Nucleophosmin)
# T3 sequence (Q9UM73 with tags, fused parts or gaps): as above
# Experimental: Cells were washed with cold PBS once and lysed in 1× Laemmli loading buffer directly. Lysates were heated at 99° C. for […], and resolved on 4-15% precast SDS-PAGE (BIO-RAD) and transferred onto PVDF membrane. Membrane was blocked in 5% milk in Tris-buffered saline and Tween 20 (TBST) for 1 h at room temperature, followed by incubation with a primary antibody overnight at 4° C., and a horseradish peroxidase (HRP)-conjugated secondary antibody for 1 h at room temperature. The membrane was imaged by a ChemiDoc MP imaging system (BIO-RAD). Antibodies against GAPDH (abeam), Phospho-ALK (Tyr1507), ALK (Cell Signaling Technology), Tubulin (Santa Cruz) were purchased commercially.
# SU-DHL-1 cells were seeded in 12-well plates at a density of 4×10^5/mL and treated with DMSO or indicated serial dilutions of compounds for 16 h. The NPM-ALK fusion protein levels were determined by Western blot and normalized against GPADH (right panel).
# [2] = Standard PK study in mice, plasma concentrations; assay type: in vivo, male Swiss Albino mice; conditions: single 50 mg/kg intraperitoneal (IP) injection, 30 min to 12 h
# Experimental: Standard PK studies were conducted using male Swiss Albino mice. […] Error bars represent ±SD for triplicate samples.
structure (smiles),measurement,setting,value
"Cc1cc(Nc2ncc(Cl)c(Nc3ccccc3S(=O)(=O)C(C)C)n2)c(OC(C)C)cc1C1CCN(CC(=O)NCCOCCOCCOCCOCCOCCNc2cccc3c2C(=O)N(C2CCC(=O)NC2=O)C3=O)CC1 (centres unmarked) [CZ40-77, 2-(4-(4-((5-Chloro-4-((2-(isopropylsulfonyl)phenyl)amino)pyrimidin-2-yl)amino)-5-isopropoxy-2-methylphenyl)piperidin-1-yl)-N-(17-((2-(2,6-dioxopiperidin-3-yl)-1,3-dioxoisoindolin-4-yl)amino)-3,6,9,12,15-pentaoxaheptadecyl)acetamide]","effect on EML4-ALK fusion protein levels, time dependence",[1],time-dependently reduced
same,"effect on EML4-ALK fusion protein levels, concentration dependence",[1],concentration-dependently reduced
same,suppressing both ALK expression and ALK activity,ALK,especially effective
same,"effect on NPM-ALK fusion protein levels, time dependence",NPM-ALK fusion protein,time-dependently reduced
same,Dmax at 0.03 µM,NPM-ALK fusion protein,> 80%
same,reversibility of induced ALK fusion protein degradation after washout,NPM-ALK fusion protein,Reversible
same,"effect on NPM-ALK fusion protein levels, concentration dependence",NPM-ALK fusion protein,concentration-dependently reduced
same,"rescue of induced NPM-ALK degradation by pomalidomide, MLN4924 and MG-132",NPM-ALK fusion protein,significantly rescued
same,cell viability inhibition compared with negative controls,SU-DHL-1 cells,better cell viability inhibition
same,GI50,SU-DHL-1 cells,< 0.04 µM
same,inhibition of ALK activity (phosphorylation at Tyr1507),Phospho-ALK (Tyr1507),strongly inhibited
"Cc1cc(Nc2ncc(Cl)c(Nc3ccccc3S(=O)(=O)C(C)C)n2)c(OC(C)C)cc1C1CCN(CC(=O)NCCNc2cccc3c2C(=O)N(C2CCC(=O)NC2=O)C3=O)CC1 (centres unmarked) [CZ40-78, 2-(4-(4-((5-Chloro-4-((2-(isopropylsulfonyl)phenyl)amino)pyrimidin-2-yl)amino)-5-isopropoxy-2-methylphenyl)piperidin-1-yl)-N-(2-((2-(2,6-dioxopiperidin-3-yl)-1,3-dioxoisoindolin-4-yl)amino)ethyl)acetamide]","effect on EML4-ALK fusion protein levels, time dependence",[1],time-dependently reduced
same,"effect on EML4-ALK fusion protein levels, concentration dependence",[1],concentration-dependently reduced
same,suppressing both ALK expression and ALK activity,ALK,especially effective
same,"effect on NPM-ALK fusion protein levels, time dependence",NPM-ALK fusion protein,time-dependently reduced
same,Dmax at 0.03 µM,NPM-ALK fusion protein,> 80%
same,reversibility of induced ALK fusion protein degradation after washout,NPM-ALK fusion protein,Reversible
same,"effect on NPM-ALK fusion protein levels, concentration dependence",NPM-ALK fusion protein,concentration-dependently reduced
same,"rescue of induced NPM-ALK degradation by pomalidomide, MLN4924 and MG-132",NPM-ALK fusion protein,significantly rescued
same,cell viability inhibition compared with negative controls,SU-DHL-1 cells,better cell viability inhibition
same,GI50,SU-DHL-1 cells,< 0.04 µM
same,bioavailability in mice,[2],Bioavailable
same,inhibition of ALK activity (phosphorylation at Tyr1507),Phospho-ALK (Tyr1507),strongly inhibited
